In PMC6253249, “Protein-Ligand Fishing in planta for Biologically Active Natural Products Using Glutathione Transferases” (Frontiers in Plant Science, 2018):
pKd: −log10 of the molar value.

Experiments:
AtGSTF2 = target: T1, AtGSTF2 (Arabidopsis thaliana, UniProt P46422); assay: Isothermal titration calorimetry (ITC) of ligand binding to Strep-tagged AtGSTF2; details: for N (binding stoichiometry) / ΔH: 25°C, HBS, 1 mM glutathione, 0.1% w/v Tween 20
T1 construct: Strep-tag (N); made in house; host or cells: Escherichia coli (minimal medium)
T1 sequence (P46422 1-212): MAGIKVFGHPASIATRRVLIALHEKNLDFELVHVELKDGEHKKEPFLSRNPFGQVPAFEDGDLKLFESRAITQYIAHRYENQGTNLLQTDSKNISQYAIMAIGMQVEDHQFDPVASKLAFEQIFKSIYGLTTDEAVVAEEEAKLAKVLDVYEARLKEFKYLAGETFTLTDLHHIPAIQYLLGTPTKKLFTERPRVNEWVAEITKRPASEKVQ
Protocol: (§1) Isothermal titration calorimetry (ITC) experiments were performed at 25°C in HBS buffer and analyzed using a VP-ITC instrument with Origin 7.0 software (GE Healthcare, Amersham, United Kingdom). Where ligands were added in solvents, an equivalent volume of ethanol was used as control. With the flavonols, 0.1% w/v Tween 20 was used to increase ligand solubility. In addition to titrating ligand into protein, control titrations of ligand into buffer and buffer into protein were performed. For studies with AtGSTF2, the respective Strep-tagged protein was purified from E. coli grown in minimal medium to minimize contamination with pre-bound ligands and used in ITC assuming 1:1 binding to ligand, as previously determined ([Dixon et al., 2011]).
(§2) To investigate the binding characteristics of the ligands to the GSTs, isothermal titration calorimetry (ITC) was used to determine binding affinity and stoichiometry. With AtGSTF2 the commercially available compounds kaempferol and kaempferol-3,7′-dimethylether were used, along with the methylated flavonols purified from the surface of the tobacco leaves (Table 2 and Supplementary Figure S4). […] When AtGSTU19 was tested with ISSG, tight and stoichiometric binding was determined (Table 2 and Supplementary Figure S5). AtGSTU19 enzyme activity, as determined by the GSH conjugation of 1-chloro-2,4-dinitrobenzene, was inhibited by ISSG in a competitive manner with respect to GSH, confirming that ISSG binding occurred at the enzyme active site.
Supplementary Figure S4. Typical ITC data for GSTF2 (7.7 µM) binding to compound 11 (putative kaempferol-3,7’-dimethylether). The experiment was performed in HBS containing 1 mM GSH, 0.1% Tween 20 and 1% ethanol. The associated line indicates best fit curves for a one set of sites binding model.

AtGSTU19 [1] = target: T2, AtGSTU19 (Arabidopsis thaliana, UniProt Q9ZRW8); assay: Isothermal titration calorimetry (ITC) of ligand binding to AtGSTU19; details: 25°C, HBS, no cofactor listed
T2 construct: Strep-tag (N)
Protocol: as §1, §2
Supplementary Figure S5. Analysis of GSTU19 ligand binding by ITC.
Binding of ISSG to 11.1 uM GSTU19. A best fit line corresponding to a one set of
sites binding model is shown.

AtGSTU19 [2] = target: T2, AtGSTU19; assay: AtGSTU19 enzyme activity, GSH conjugation of 1-chloro-2,4-dinitrobenzene, inhibition; assay type: biochemical; details: with respect to GSH; substrate 1-chloro-2,4-dinitrobenzene
Protocol: as §2

GSTU19 = target: T3, GSTU19 (Arabidopsis thaliana, UniProt Q9ZRW8); assay: Isothermal titration calorimetry at 25 °C in HBS, ligand titrated into GSTU19, no GSH marked for these rows, one-set-of-sites fit.; assay type: binding; details: read-out: Ka (μM^-1) (converted)
T3 construct: recombinant, Strep-tagged
Protocol: as §1
as §2, with “stoichiometry.” for “stoichiometry. With AtGSTF2 the commercially available compounds kaempferol and kaempferol-3,7′-dimethylether were used, along with the methylated flavonols purified from the surface of the tobacco leaves (Table 2 and Supplementary Figure S4).”, “site. […]” for “site.”

GSTUs from poppy = system: GSTUs from poppy; set-up: method as in Yu and Facchini, 2000; details: ref Yu and Facchini, 2000; cited from earlier work

T2 sequence (Q9ZRW8 whole entry): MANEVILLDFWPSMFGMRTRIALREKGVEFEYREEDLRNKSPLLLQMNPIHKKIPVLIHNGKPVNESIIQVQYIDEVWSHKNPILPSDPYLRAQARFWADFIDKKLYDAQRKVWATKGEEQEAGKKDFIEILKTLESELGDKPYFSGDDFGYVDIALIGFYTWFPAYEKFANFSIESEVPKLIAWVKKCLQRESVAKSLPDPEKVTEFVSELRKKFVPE
T3 sequence (Q9ZRW8 whole entry): as above

COc1cc(O)c2c(=O)c(OC)c(-c3ccc(O)cc3)oc2c1 [Compound 11, kaempferol-3,7′-dimethylether]
pKd (AtGSTF2): 6.66

COc1ccc(-c2oc3cc(OC)cc(O)c3c(=O)c2OC)cc1 [Compound 13, kaempferol-3,7,4′-trimethylether]
pKd (AtGSTF2): > 6.00 | N (binding stoichiometry) (AtGSTF2): 0.54 ± 0.01 | ΔH (AtGSTF2): -18.4 ± 0.2 kcal/mol

NC(CCC(=O)NC(CSSCc1c[nH]c2ccccc12)C(=O)NCC(=O)O)C(=O)O (stereo not drawn) [ISSG, 3-methylindolyl glutathionyl disulfide]
N (binding stoichiometry) (AtGSTU19 [1]): 0.98 ± 0.01 | ΔH (AtGSTU19 [1]): -10.6 ± 0.1 kcal/mol | Mode of inhibition of AtGSTU19 enzyme activity (AtGSTU19 [2]): competitive

N[C@@H](CCC(=O)N[C@@H](CSSCc1c[nH]c2ccccc12)C(=O)NCC(=O)O)C(=O)O [ISSG, 3-methylindolyl glutathionyl disulfide]
Kd (GSTU19): 0.117 µM

CCCCCCSC[C@H](NC(=O)CC[C@H](N)C(=O)O)C(=O)NCC(=O)O [S-hexylglutathione, reference compound]
N (binding stoichiometry) (AtGSTU19 [1]): 0.84 ± 0.01 | ΔH (AtGSTU19 [1]): -11.8 ± 0.1 kcal/mol

CCCCCCSC[C@H](NC(=O)CC[C@H](N)C(=O)O)C(=O)NCC(=O)O [S-hexylglutathione]
Kd (GSTU19): 0.311 µM

COc1cc(/C=C/C(=O)NCCc2ccc(O)cc2)ccc1O [feruloyltyramine, N-trans-feruloyltyramine]
Inhibition of poppy GSTUs (in words) (GSTUs from poppy): weakly inhibiting

O=c1c(O)c(-c2ccc(O)cc2)oc2cc(O)cc(O)c12 [kaempferol, reference compound]
pKd (AtGSTF2): 4.92 | N (binding stoichiometry) (AtGSTF2): 0.60 ± 0.05 | ΔH (AtGSTF2): -12.6 ± 1.4 kcal/mol
